Source: patent publication US20080167379A1, “Ointment” (TAISHO PHARMACEUTICAL CO., LTD., priority 2005, published 2008)

Legend:
[1] = Storage stability of ointment at 40° C. and 75% RH: content against initial content; type: physicochemical; conditions: storage at 40° C. and 75% RH 1 month or 25° C. 3 months, Table 5
Method: To confirm the storage stability of the compound represented by formula (II) in the preparation, the content (%) of the compound after a storage at 40° C. and 75% RH against the content at the time of initiation, was determined.
To confirm the storage stability of the compound represented by formula (II) in the preparation, the contents (%) of the compound after storages at 40° C. and 75% RH, and at 50° C. against the content at the time of initiation, was determined.
To confirm the storage stability of the compound represented by formula (II) in the preparation, the contents (%) of the compound after a storage at 40° C. and 75% RH, or at 25° C. against the content at the time of initiation, was determined.

NC/Nga mice = test: Spontaneous scratching action after ointment application; type: in vivo; conditions: ointment applied to NC/Nga mice; FIG. 2
Method: [FIG. 2] A graph showing the number of scratching action (average value ±SE, n=8) when a present ointment was applied to NC/Nga mice.
(§1) According to the methods described in the literature (Japanese Laid-open patent publication Nos. 2005-247843 and 2005-247842), measurements of the spontaneous action of scratching and the amount of transdermal water evaporation were performed with regard to the compound represented by formula (II). A test was performed, using ointments prepared in the same manner as in Example 4 to have the compound represented by formula (II) at concentrations of 0.0001% and 0.001%.

[2] = tested on: BALB/c mice having the skin barrier destroyed by chafing; test: Transdermal water evaporation (TEWL) after ointment application; type: in vivo; conditions: ointment applied to BALB/c mice with skin barrier destroyed by chafing, compared with base only; FIG. 3
Method: [FIG. 3] A graph showing the amount of transdermal evaporation of water (TEWL, average value ±SE, n=8) when a present ointment was applied to BALB/c mice having the skin barrier destroyed by chafing.
as §1

storage stability (in words) [1]: stable in the drugs
SMILES: O=C(O)CSCCCC[C@@H]1[C@@H](C#C[C@@H](O)C2CCCCC2)[C@H](O)C[C@H]1Cl [compound represented by formula (II)]
number of scratching action (NC/Nga mice): a decrease in the scratching action
amount of transdermal evaporation of water (TEWL) [2]: a decrease in the amount of transdermal water evaporation
